Key:
[1] = test system: Amaranthus retroflexus; assay: Test H weed control, field plots; type: in vivo; design: concentration or dose not given beside the values; conditions: 36 days after treatment; g a.i./ha: tribenuron-methyl 22.5, metsulfuron-methyl 6, ethametsulfuron-methyl 16, imazapyr isopropylamine salt 15, aclonifen 1200
Summary of the method: (§1)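 Weeds were row-sown in tilled 2 m×5 m field plots and sprayed 21 days after sowing at the 2- to 6-leaf stage, using flat fan nozzles at about 296 L/ha in a randomized complete block design with three replicates. Control was rated visually 36 days after treatment on a 0–100% scale against an adjacent untreated plot.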

[2] = test system: Atriplex patula; assay: Test H weed control, field plots; type: in vivo; design: concentration or dose not given beside the values; conditions: 36 days after treatment; g a.i./ha: tribenuron-methyl 22.5, metsulfuron-methyl 6, ethametsulfuron-methyl 16, imazapyr isopropylamine salt 15, aclonifen 1200
Summary of the method: as §1

[3] = test system: Capsella bursa pastoris; assay: Test H weed control, field plots; type: in vivo; design: concentration or dose not given beside the values; conditions: 36 days after treatment; g a.i./ha: tribenuron-methyl 22.5, metsulfuron-methyl 6, ethametsulfuron-methyl 16, imazapyr isopropylamine salt 15, aclonifen 1200
Summary of the method: as §1

[4] = test system: Matricaria inodora; assay: Test H weed control, field plots; type: in vivo; design: concentration or dose not given beside the values; conditions: 36 days after treatment; g a.i./ha: tribenuron-methyl 22.5, metsulfuron-methyl 6, ethametsulfuron-methyl 16, imazapyr isopropylamine salt 15, aclonifen 1200
Summary of the method: as §1

[5] = test system: Polygonum convolvulus; assay: Test H weed control, field plots; type: in vivo; design: concentration or dose not given beside the values; conditions: 36 days after treatment; g a.i./ha: tribenuron-methyl 22.5, metsulfuron-methyl 6, ethametsulfuron-methyl 16, imazapyr isopropylamine salt 15, aclonifen 1200
Summary of the method: as §1

[6] = test system: Polygonum persicaria; assay: Test H weed control, field plots; type: in vivo; design: concentration or dose not given beside the values; conditions: 36 days after treatment; g a.i./ha: tribenuron-methyl 22.5, metsulfuron-methyl 6, ethametsulfuron-methyl 16, imazapyr isopropylamine salt 15, aclonifen 1200
Summary of the method: as §1

[7] = test system: Sinapis arvensis; assay: Test H weed control, field plots; type: in vivo; design: concentration or dose not given beside the values; conditions: 36 days after treatment; g a.i./ha: tribenuron-methyl 22.5, metsulfuron-methyl 6, ethametsulfuron-methyl 16, imazapyr isopropylamine salt 15, aclonifen 1200
Summary of the method: as §1

[8] = test system: Solanum nigrum; assay: Test H weed control, field plots; type: in vivo; design: concentration or dose not given beside the values; conditions: 36 days after treatment; g a.i./ha: tribenuron-methyl 22.5, metsulfuron-methyl 6, ethametsulfuron-methyl 16, imazapyr isopropylamine salt 15, aclonifen 1200
Summary of the method: as §1

[9] = test system: BC4-M5M7 × PHA155; assay: Test C field phytotoxicity, BC4-M5M7 × PHA155; type: in vivo, sunflower
Excerpt: A rating of 0% phytotoxicity means no crop injury.

[10] = test system: 'M2' seeds; assay: Hydroponic selection of M2 seeds with sulfonylurea herbicides; type: in vivo, sunflower; conditions: hydroponic beds
Description: ‘M2’ seeds were seeded in individual hydroponic beds described as “Large-Scale Hydroponic Screening System” in U.S. Pat. No. 5,084,082 and treated with sulfonylurea herbicides. For each treatment, 10,000 seeds were added per bed. […] Most of the treatments used thifensulfuron-methyl at 20, 40 or 50 μg/L or rimsulfuron at 40 or 80 μg/L. Five plants showing resistance to sulfonylurea herbicides were found during various selection experiments; these are identified in Table 2.

[11] = test system: M5M7; assay: Test B greenhouse phytotoxicity, M5M7; type: in vivo, sunflower; conditions: in vivo
Summary of the method: (§2)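 Formulated ALS-inhibiting herbicides sprayed post-emergence at the 4-leaf stage on homozygous mutant sunflower inbreds (M5 maintainers and BC4 male-sterile back-crosses) in the greenhouse, at rates commonly used in registered crops. Two replicates; crop injury rated as % phytotoxicity, 0% meaning no injury.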

[12] = test system: M5M11; assay: Test B greenhouse phytotoxicity, M5M11; type: in vivo, sunflower; conditions: in vivo
Summary of the method: as §2

[13] = test system: M5M12; assay: Test B greenhouse phytotoxicity, M5M12; type: in vivo, sunflower; conditions: in vivo
Summary of the method: as §2

[14] = test system: BC4-M5M7; assay: Test B greenhouse phytotoxicity, BC4-M5M7; type: in vivo, sunflower; conditions: in vivo
Summary of the method: as §2

[15] = test system: BC4-M5M11; assay: Test B greenhouse phytotoxicity, BC4-M5M11; type: in vivo, sunflower; conditions: in vivo
Summary of the method: as §2

[16] = test system: BC4-M5M12; assay: Test B greenhouse phytotoxicity, BC4-M5M12; type: in vivo, sunflower; conditions: in vivo
Summary of the method: as §2

[17] = test system: homozygous progeny of the three mutant sources; type: in vivo, sunflower; conditions: Test B application rates, post-emergence
Summary of the method: as §2

Compound	weed control, visual rating: Amaranthus retroflexus [1] [%]	weed control, visual rating: Atriplex patula [2] [%]	weed control, visual rating: Capsella bursa pastoris [3] [%]	weed control, visual rating: Matricaria inodora [4] [%]	weed control, visual rating: Polygonum convolvulus [5] [%]	weed control, visual rating: Polygonum persicaria [6] [%]	weed control, visual rating: Sinapis arvensis [7] [%]	weed control, visual rating: Solanum nigrum [8] [%]	other results
COC(=O)c1ccccc1S(=O)(=O)NC(=O)Nc1nc(C)nc(OC)n1 [Metsulfuron-methyl, metsulfuron-methyl]	99	100	100	100	92	100	100	97	–
COC(=O)c1cccc(C)c1S(=O)(=O)NC(=O)Nc1nc(OCC(F)(F)F)nc(N(C)C)n1 [Triflusulfuron-methyl, triflusulfuron-methyl]	–	–	–	–	–	–	–	–	Phytotoxicity Rating After Treatment ([9]; postemergence 7.5 g a.i./ha, 7 DAT): 38%; Phytotoxicity Rating After Treatment ([9]; postemergence 7.5 g a.i./ha, 15 DAT): 40%; Phytotoxicity Rating After Treatment ([9]; postemergence 7.5 g a.i./ha, 30 DAT): 28%; Phytotoxicity Rating After Treatment ([9]; postemergence 15 g a.i./ha, 7 DAT): 57%; Phytotoxicity Rating After Treatment ([9]; postemergence 15 g a.i./ha, 15 DAT): 53%; Phytotoxicity Rating After Treatment ([9]; postemergence 15 g a.i./ha, 30 DAT): 40%; suitability as selection agent [10]: insufficiently active on sunflower
COC(=O)c1ccccc1S(=O)(=O)NC(=O)N(C)c1nc(C)nc(OC)n1 [Tribenuron-methyl, tribenuron-methyl]	93	100	100	100	93	100	100	100	Maximum Phytotoxicity [11]: 12.5%; Maximum Phytotoxicity [12]: 0%; Maximum Phytotoxicity [13]: 7.5%; Maximum Phytotoxicity [14]: 10%; Maximum Phytotoxicity [15]: 17.5%; Maximum Phytotoxicity [16]: 20%; tolerance of the mutants [17]: good tolerance

From US6822146B2, “Sulfonylurea-tolerant sunflower line M7” (priority 2000, dated 2004)
